Test results reported in publication PMC9118553, “In Vivo Bioconcentration of 10 Anionic Surfactants in Rainbow Trout Explained by In Vitro Data on Partitioning and S9 Clearance” (Environmental Science & Technology, 2022).
Where two headings read alike, the source gives them in different places. Marks after values point to notes of the source that are not given here.

Key:
[1] = RT-S9 substrate depletion assay, mixture of 9 anionic surfactants (AnionMixture); conditions: for Slope of depletion curve (log concentration vs time): tested in a mixture
Protocol: An established RT-S9 substrate depletion assay was employed,[25]−[27] predating the currently available OECD guideline 319B.[28] A single batch of the characterized liver homogenate material was prepared at the US EPA lab in Duluth and shipped on dry ice to the testing facilities at the University of Amsterdam. The test was conducted using the same method applied for a series of cationic surfactants in Droge et al.[29] and is summarized together with the in vitro–in vivo extrapolation in Text S4.
Text S4: Trout liver S9 parent depletion assay details and IVIVE
Liver tissue was separately pooled from the same five rainbow trout (three males/two females, ~300 g, liver weight ~3 g) used also for the RT-S9 study on a series of cationic surfactants (Droge et al., 2021b). The liver sample was homogenized in an appropriate buffer and then centrifuged to yield a 13,000 x g supernatant (the ‘S9 fraction’, lacking only mitochondrial fractions). No further refinement towards microsomal fractions was made to remove cytosolic and lysosomal components.
Upon arrival at the University of Amsterdam the liver
S9 material was stored in a -80 °C freezer until use.
Individual chemicals were first dissolved in methanol and then further diluted to 20% methanol in 100 mM phosphate buffer to make a ~20 µM stock solution, which was then spiked as 10 µL in 190 µL of active S9 mixture. The active S9 mixture consisted of 100 mM potassium phosphate-buffered saline (PPBS) adjusted to pH 7.8, 2 mM β-NADPH, 2 mM UDPGA, 0.1 mM PAPS, 5 mM GSH, 10 μg/mL alamethicin (in methanol carrier; 0.1% v/v final concentration), and 2 mg/mL S9 protein. The substrate depletion assays were performed using the multiple vial method described in OECD TG 319B, employing two or three separately spiked series.
Reactions were performed at 11 °C in a temperature-controlled water bath (B. Braun Frigomix-R) that was placed on a 2 cm travel path shaker (Gerhardt LS 10) set at 45 rpm. As a positive […]
alkylsulfonates, no additional assays with inactivated RT-S9 were performed.
Reactions were quenched with 600 µL ice-cold acetonitrile. After 10 s vortexing and 5 min centrifugation (Hermle Z300, 2500 rpm), 100 µL clear supernatant was transferred into 300 µL glass inserts placed in new autosampler vials, and mixed with 100 µL pure water. Concentrations were measured using a Prominence UFLC-XR system (Shimadzu) coupled to a tandem mass spectrometer (QTRAP 4000, Applied Biosystems) with a Turbo Ion spray source operated at 400 ◦C. For chromatographic separations, a 100 x 2.1mm x 2.7 µm Supelco Ascentis Express column was used (40 °C), with eluent A: pure water with 2 mM ammonium acetate, and eluent […]
prepared in 50% acetonitrile/water, calibration curves used covered at least four points in a log-linear range. The lowest external standard to fit the log-linear calibration curve served as limit of quantification, requiring a peak of at least 10x the average noise.
Each vial was treated as an independent vial with recorded exposure time. Log-transformed concentration data of the parent compound were plotted against exposure time (min) and analysed using Graphpad PRISM 8. […]
the slope (min-1) was multiplied by -2.3 and by 60 (min h-1) to obtain a first order depletion rate […]
Extrapolation of kdep to whole body rate biotransformation rate constant (kB-S9) The basic approach to extrapolate first order depletion rate constants (k dep) to whole body

[2] = cited from earlier work; for log DMW, membrane-water distribution ratio: marked * = measured, used for IVIVE, same values as Table 3
[3] = test system: rainbow trout; conditions: rainbow trout carcass; cited from earlier work
[4] = parameters: method as in REACH dossier; conditions: method as noted in the cell (shake flask, solubility ratio, HPLC, BCFBAF, pH); ref REACH dossier; cited from earlier work

Row | SMILES | Slope of depletion curve (log concentration vs time) [1] | log DMW, membrane-water distribution ratio [2] | log DMLW ([2]; measurement from Droge) | BCF [3] | log DMLW ([2]; measurement from Droge et al.) | LogKow [4] | clearance rate lower in AnionMixture compared to single compound assay (factor) [1]
1 | CCCCCCCCCCCCCCCCS(=O)(=O)O [C16SO3, hexadecylsulfonate] | -0.0008 min-1 | 6.19 |  |  |  |  | 
2 | CCCCCCCCCCCCCS(=O)(=O)O [C13SO3, tridecylsulfonate] |  | 4.46 | 4.46 ^e L kg^–1 |  |  |  | 
3 | CCCCCCCCCCCCCOS(=O)(=O)O [C13SO4, tridecylsulfate] | -0.0042 min-1 | 5.21 | 5.21 ^e L kg^–1 |  |  |  | 
4 | CCCCC(CC)COC(=O)CC(C(=O)OCC(CC)CCCC)S(=O)(=O)O (stereo not shown) [DOSS, bis(2-ethylhexyl)sulfosuccinate] | -0.0021 min-1 | 4.58 |  | 3.78 L kg^–1 | 4.58 ^f L kg^–1 | 2 | 
5 | CCCCCCCCCCCS(=O)(=O)O [C11SO3, undecylsulfonate] |  | 3.39 |  |  |  |  | 
6 | CCCCCCCCCCCCOCCOCCOCCOCCOS(=O)(=O)O [C12-EO4-SO4, dodecyltetraethoxysulfate] | -0.0216 min-1 | 4.24 |  |  | 4.24 ^f L kg^–1 |  | 
7 | CCCCCCCCCCc1ccc(S(=O)(=O)O)cc1 [C10-1-LAS, 1-n-(p-sulfophenyl)decane] | -0.0050 min-1 |  |  |  |  |  | twofold
8 | CCCCCCCCCCCOS(=O)(=O)O [C11SO4, undecylsulfate] | -0.0202 min-1 | 4.16 |  |  |  |  | twofold
9 | CCCCCCCCCCS(=O)(=O)O [C10SO3, decylsulfonate] | -0.0111 min-1 | 3.01 | 3.01 ^e L kg^–1 |  |  |  | 6
10 | CCCCCCCCCCCCCCS(=O)(=O)O [C14SO3, tetradecylsulfonate] | -0.0010 min-1 | 4.95 | 4.95 ^e L kg^–1 |  |  |  | 
